# Experimental data published in patent US20110230421A1, “FUSION PROTEINS OF APOPTIN-PROTEIN TR[…] OF CARBOXYL-TERMINUS OF EC-SOD” (priority 2008, published 2011).
# Read-outs that look alike come from different tables or passages of the source.
# B1: recombinant Apoptin: recombinant Apoptin protein isolated and purified from the prokaryotic expression system, used as the control (protein)
# chain: MNALQEDTPPGPSTVFRPPTSSRPLETPHCREIRIGIAGITITLSLCGCANARAPTLRSATADNSESTGFKNVPDLRTDQPKPPSKKRSCDPSEYRVSELKESLITTTPSRPRTAKRRIRL
# modifications: Chicken anemia virus
# notes: recombinant Apoptin protein isolated and purified from the prokaryotic expression system, used as the control
# Assays:
# [1] = tested on: Lewis lung carcinoma; type: in vivo, mouse; conditions: i.p. daily for 7-8 days, cyclophosphamide 20, Poly Arg-Apoptin 40, Apoptin-EC-SOD-PTD 10 mg/kgBW/day; for ratio of tumor inhibition: versus blank group mean tumor weight
# Protocol: Four groups including a blank control, a positive control and a recombinant Apoptin-EC-SOD-PTD test group and a recombinant Poly Arg-Apoptin group were set for the experiment, and 8 animals were tested for each group. After inoculation of Lewis lung carcinoma cells, the blank control group was injected with saline water. Whereas, the positive control group was injected with cyclophosphamide solution (20 mg/kgBW/day). The two test groups were injected with the recombinant Apoptin-EC-SOD-PTD (10 mg/kgBW/day) which was purified, dialysed and sterile filtrated and recombinant Poly Arg-Apoptin (40 mg/kgBW/day), respectively.
# 1. Inoculation of carcinoma cell line: Six weeks old C57BU6 male mice with a weight of about 20 g were inoculated by armpit with 0.2 ml of Lewis lung carcinoma single cell suspension. After feeding for 3-4 days, tumor growth in the armpits of the mice was observed. Drug administration test would be initiated when the tumor grew to a size of several millimeters.
# 2. Administration: Drugs were administered by intraperitoneal injection, and the administrations were continued for 7-8 days. The mouse was weighed before daily administration.
# 3. Detecting ratio of tumor inhibition: After the drug administrations were stop for 2 days, the mice were sacrificed by breaking their necks. The tumor tissue was stripped from the body, weighted and calculated the ratio of tumor inhibition.
# Ratio of tumor inhibition=(mean tumor weight of the blank group—mean tumor weight of the test group)/mean tumor weight of the blank group×100%.
# [2] = tested on: HeLa cells; assay: MTT survival of HeLa cells cultured in vitro, 24 h; type: cell-based; conditions: 100 μg/ml
# Protocol: 1. The HeLa cells were cultured on the 96-well cell culture plate at 37° C. until the cell density reached to about 60%. Imidazole was removed from the recombinant Apoptin-EC-SOD-PTD sample isolated and purified after expressing by repeated dialysis. After sterile filtration, the protein was diluted by adding different volume of DMEM cell culture media. From the highest concentration of protein, the concentration was reduced by half dilution gradually until zero. And the solution without protein was used as the negative control; for each protein concentration group were selected 3-4 wells for parallel control. Meanwhile, the recombinant Apoptin protein isolated and purified from the prokaryotic expression system using the similar method was used as the control and conducted the same experimental operation. The two sets of samples were cultured for 24 h, drew culture media out and added the DMEM (100 μl) containing the 5 μg/ml of MTT, and then incubated for 4 hours at 37° C., drew the culture media out and added DMSO (100 μl) to dissolve the purple crystals, incubated for 10 min at 37° C. and measured its absorbance at 490 nm by a microplate reader. […]
# 2. Survival ratios of HeLa cells treated with different sample concentration were detected by MTT method.
Molecule,weight of the tumor tissue X ± SD ([1]; tumor stripped 2 days after last dose),ratio of tumor inhibition [1] [%],ratio of tumor inhibition ([1]; listed as positive control) [%],effect on the cell growth of HeLa [2]
O=P1(N(CCCl)CCCl)NCCCO1 (stereo not shown) [cyclophosphamide],1.21 ± 0.119,47.4,47.4,
B1,,,,not obvious
